Experimental data from patent publication US5912229A, “Use of a pharmaceutical composition comprising an appetite-suppressing peptide” (Novo Nordisk Als, priority 1996, dated 1999).
Ends that are not written are not given here.

Columns and labels:
Mice [1] = test: Appetite suppression in mice, infant formula milk (Complan) consumption; format: in vivo
Procedure: (§1) Mice were deprived of their normal feed for two days and given free access to a 20% sucrose solution on the first day of feed deprivation. After the 2-day feed deprivation period, mice were injected intraperitoneally with 0.5 ml of a solution containing the test substance. Thirty minutes after injection, individual mice were placed in one of eight 15 cm^2 test box with a stainless steel grid floor and a glass drinking tube which projected into the box. The drinking tube was connected to a reservoir containing a 20% sucrose solution, and the interior of the drinking tube contained an electrode enabling the detection of drinking contacts with the solution by measuring the flow of a weak (unnoticeable) electric current through mice by means of an electronic apparatus connected to the drinking tube electrode and the stainless steel grid floor. Consumption of the sucrose solution was measured over a 10 minute period by electronically recording the total amount of contact with the sucrose solution during the test session. The degree of appetite suppression produced by a given test substance was determined by statistical comparison of the duration of sucrose consumption by control (vehicle treated) mice with that of mice treated with a test substance. The degree of appetite suppression in a treated group of mice was expressed as percent of the control groups response.
The method is as in Example 5, but instead of 20% sucrose, a solution of infant formula milk (Complan®) is used. The test substance is dissolved in a vehicle consisting of phosphate buffered saline with 1% albumin. Test substances dissolved in vehicle are injected either intravenously (IV) in a volume of 100 microliters, or intra-cerebroventricularly (ICV) in a volume of 10 microliters.
Mice were tested for appetite suppression as described in Example 8 after treatment with a test substance consisting of synthetic human GLP-2.

fasted rats = conditions: cited from earlier work
Mice [2] = test: Appetite suppression in mice, 20% sucrose solution consumption; format: in vivo; conditions: intraperitoneal injection, 50 micrograms
Procedure: as §1, with “response. […]” for “response.”

## CC[C@H](C)[C@H](NC(=O)[C@H](Cc1ccccc1)NC(=O)[C@H](CC(=O)O)NC(=O)[C@H](CCCNC(=N)N)NC(=O)[C@H](C)NC(=O)[C@H](C)NC(=O)[C@H](CC(C)C)NC(=O)[C@H](CC(N)=O)NC(=O)[C@H](CC(=O)O)NC(=O)[C@H](CC(C)C)NC(=O)[C@@H](NC(=O)[C@@H](NC(=O)[C@H](CC(N)=O)NC(=O)[C@H](CCSC)NC(=O)[C@H](CCC(=O)O)NC(=O)[C@H](CC(=O)O)NC(=O)[C@H](CO)NC(=O)[C@H](Cc1ccccc1)NC(=O)[C@H](CO)NC(=O)CNC(=O)[C@H](CC(=O)O)NC(=O)[C@H](C)NC(=O)[C@@H](N)Cc1c[nH]cn1)[C@@H](C)O)[C@@H](C)CC)C(=O)N[C@@H](CC(N)=O)C(=O)N[C@@H](Cc1c[nH]c2ccccc12)C(=O)N[C@@H](CC(C)C)C(=O)N[C@H](C(=O)N[C@@H](CCC(N)=O)C(=O)N[C@H](C(=O)N[C@@H](CCCCN)C(=O)N[C@H](C(=O)N[C@H](C(=O)N[C@@H](CC(=O)O)C(=O)O)[C@@H](C)O)[C@@H](C)CC)[C@@H](C)O)[C@@H](C)CC [synthetic human GLP-2, human GLP-2]
Mice [1]; ICV injection, 3 micrograms
  suppression of milk consumption: 32%
Mice [1]; ICV injection, 10 micrograms
  suppression of milk consumption: 35%
Mice [1]; IV injection, 3 micrograms
  suppression of milk consumption: 24%

## GLP-1
Fasted rats; fasted rats, intracerebroventricular (ICV) administration
  effect on feeding: inhibited feeding
Fasted rats; peripheral administration
  effect on feeding behaviour: no effect on feeding behaviour

## Glucagon
Fasted rats; fasted rats, intraperitoneal administration of pharmacological doses
  effect on food intake: no effect on food intake

## HADGSFSDEMNTVLDNLATRDFINWLLHTKITD [synthetic porcine GLP-2, porcine GLP-2]
Mice [2]
  suppression of sucrose consumption: 38%
